# Assay results: patent US7772177B2, “BIR domain binding compounds” (Aegera Therapeutics, Inc., priority 2005, dated 2010)
# pEC50, pIC50: −log10 of the molar value. Structures can show the parent of a compound that is named as a salt.
# Columns and labels:
# [1] = test system: selected cell lines in hollow fibers; test: Hollow fiber in vivo model; set-up: species or system Nu/Nu CD-1 male mice; details: Method 37, sub-cutaneous route
# Experimental: At day 1, selected cell lines were cultured and the fiber filled at a cell density of about 40,000 cells/fiber. At the day of operation (day 4), three fibers are implanted sub-cutaneous into 28-35 Nu/Nu CD-1 male mice. On day 5, mice start to receive daily injection via sub-cutaneous route of control vehicle or vehicle containing the selected compound at the appropriate concentration and/or injection of cytotoxic agent via intra-peritoneal route. Upon 7 days of non-consecutive treatments, the animals are sacrificed, each fiber is removed and the metabolic viability of the remaining cells determined by MTT assay. Efficacy of the compound is define as the difference between the vehicle-treated animal and the animal treated with the compound alone or the compound given in combination of the cytotoxic agent
# H460 cells = test: Combination anti-cancer therapy in vivo with Taxotere, H460 tumors; set-up: species or system Female CD-1 nude mice; details: cumulative dose of 20 mg/kg, sc per day
# Experimental: Taxotere (30 mg/kg, ip)/Saline (n=9)
# Taxotere (30 mg/kg, ip)/compound 56 (2×5 mg/kg, sc) (n=10)
# Female CD-1 nude mice (approximately 20-25 g) were subcutaneously injected with 1×10^6 H460 cells in the right flank. Animals were balanced into groups based on tumor size and drug therapy began when tumors were ˜30-50 mm^3. Animals that had no tumor or that were deemed outliers because of excessive tumor size at this time were removed from the study. The remaining animals received Taxotere (or equivalent volume of vehicle) at 30 mg/kg, ip 2 times, one week apart. The compound was given two times per day (at 10 mg/kg, sc, approximately 6 hrs apart), starting at the time of Taxotere, and continuing daily for the duration of the experiment. If dehydration occurred, animals received sc fluids (0.5 ml). Tumor size was measured three times per week. Health assessments were performed at the time of the compound's delivery.
# GST-XIAP BIR3RING = biological target: T1, GST-XIAP BIR3RING (Homo sapiens, UniProt P98170); test: Fluorescence polarization-based competition assay, XIAP Bir3-RING; type: binding
# T1 construct: made in house; host or cells: E. coli DH5-alpha
# Method in brief: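 Competitive fluorescence polarization with GST-XIAP BIR3-RING (aa 246-497, E. coli-expressed) and a fluorescein-labelled peptide probe in 50 mM MES pH 6.5 with BSA; protein fixed at titrated linear-signal level. Compound autofluorescence and quenching checked; IC50 from 10-point dilutions, Ki derived by Nikolovska-Coleska equation.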
# GST-HIAP2 (cIAP-1) BIR 3 = biological target: T2, GST-HIAP2 (cIAP-1) BIR 3 (Homo sapiens, UniProt Q13490); test: Fluorescence polarization-based competition assay, cIAP-1 Bir3; type: binding
# T2 construct: made in house; host or cells: E. coli DH5-alpha
# Method in brief: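 GST-cIAP-1 BIR3 (aa 251–363, E. coli) at a titrated fixed level, combined with fluorescein-labelled peptide probe and a 10-point compound series in 50 mM MES pH 6.5 with BSA. Polarization read at ex 485/em 535 nm; IC50 fitted, and Ki derived using the Nikolovska-Coleska equation.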
# GST-HIAP1(cIAP-2) BIR 3 = biological target: T3, GST-HIAP1(cIAP-2) BIR 3 (Homo sapiens, UniProt Q13489); test: Fluorescence polarization-based competition assay, cIAP-2 Bir3; type: binding
# T3 construct: made in house; host or cells: E. coli DH5-alpha
# Method in brief: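 GST-cIAP-2 BIR3 (aa 236-349, E. coli-expressed) at a pre-titrated fixed level, with fluorescein-labelled AVPF-peptide probe and 10-point compound dilutions in 50 mM MES pH 6.5 with BSA. Fluorescence polarization read at Ex 485/Em 535 nm; IC50 from curve fit, Ki derived per Nikolovska-Coleska equation.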
# [2] = biological target: T4, XIAP Bir3-RING (GST-BIR 3RING) (Homo sapiens, UniProt P98170); test: Caspase de-repression assay using cellular extracts (apoptosome), XIAP Bir3-RING; type: biochemical; details: 293 cell S100 extract
# T4 construct: made in house; host or cells: E. coli DH5-alpha
# Method in brief: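 293-cell S100 extract with 0.25 uM-2 uM GST-XIAP fusion and compound (0.02 uM-40 uM), activated by 1 mM dATP, 0.1 mM ALLN and cytochrome C at 37° C. for 25 min in pH 7.0 Pipes buffer. Caspase-3 activity read as initial rate of DEVD-AMC cleavage (ex 360/em 444 nm) over 1 h, relative to fully activated and XIAP-repressed extract.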
# [3] = biological target: T5, XIAP Bir2-Bir3-RING (GST-linker BIR2 BIR3RING) (Homo sapiens, UniProt P98170); test: Caspase de-repression assay using cellular extracts (apoptosome), XIAP Bir2-Bir3-RING; type: biochemical; details: 293 cell S100 extract
# T5 construct: made in house; host or cells: E. coli DH5-alpha
# Experimental: 100 ug of 293 cell S100 extract and 0.25 uM-2 uM of GST-Xiap fusion protein (GST-BIR 3RING, GST-linker BIR2 BIR3RING) were co-incubated with serial dilutions of compound (0.02 uM-40 uM). Extracts were activated by adding 1 mM dATP, 0.1 mM ALLN, 133 ug Cytochrome C (final concentrations), and incubating at 37° C. for 25 minutes. All reactions and dilutions used S100 buffer (50 mM Pipes pH 7.0, 50 mM KCl, 0.5 mM EGTA pH 8.0, 2 mM MgCl2 supplemented with 1/1000 dilutions of 2 mg/ml Cytochalisin B, 2, mg/ml Chymotstatin, Leupeptin, Pepstatin, Antipain, 0.1M PMSF, 1M DTT). Final reaction volume was 30 ul. Caspase-3 activity was measured by overlaying 30 ul of a 0.4 mM DEVD-AMC solution. AMC cleavage was measured in a TECAN spectrophotometer at 360 nm excitation and 444 nm emission, on a kinetic cycle of 1 hour with readings taken every 5 minutes. Caspase activity was calculated as Vo of AMC fluorescence/sec. Caspase de-repression by our compounds were compared to fully activated extract and activated extract repressed by the presence of XIAP fusion protein.
# (§1) Results: Compounds were also tested in the apoptosome assay and the linker-BIR2/caspase-3 inhibition assay and found to have IC50s in the following ranges: A: >10 μM; B: <10 μM; C: <1 μM, as shown in Table 7.
# [4] = biological target: T6, caspase-3 inhibited by linker BIR2-BIR3-RING of XIAP (Homo sapiens, UniProt P98170); test: Caspase-3 linker-BIR2-BIR3-RING derepression assay; type: biochemical
# T6 construct: made in house; host or cells: E. coli DH5-alpha (GST-XIAP); E. coli AD494 (His-caspase-3)
# Experimental: In order to determine the relative activity of the selected compound against BIR2, an in vitro assay was used where caspase-3 was inhibited by linker-BIR2 or linker BIR2-BIR3-RING of XIAP. Briefly, 1.5 ul of the enzyme, 0.25 uM to 2 uM of GST-Xiap fusion protein (GST-linker BIR2, GST-linker BIR2BIR3RING) were co-incubated with serial dilutions of compound (80 uM-0.04 uM). Caspase 3 activity was measured by overlaying 25 ul of a 0.4 mM DEVD-AMC solution. Final reaction volume was 100 ul. All dilutions were performed in caspase buffer (50 mM Hepes pH 7.4, 100 mM NaCl, 10% sucrose, 1 mM EDTA, 10 mM DTT, 0.1% CHAPS (Stennicke, H. R., and Salvesen, G. S. (1997). Biochemical characteristics of caspase-3, -6, -7, and -8. J. Biol. Chem. 272, 25719-25723)).
# The fluorescent AMC released from the caspase-3 hydrolysis of the substrate was measured in a TECAN spectrophotometer at 360 nm excitation and 444 nm emission, on a kinetic cycle of 30 minutes with readings taken every 2 minutes. Caspase activity was calculated as Vo of AMC fluorescence/sec. Caspase de-repression by our compounds were compared to caspase-3 alone and caspase 3 repressed by the presence of XIAP fusion protein.
# as §1
# MDA-MB-231 cells = test: Survival assay (MTS) on MDA-MB-231 cells; type: cell-based; details: Homo sapiens, 72 hours, read-out: EC50 MDA-MB-231 breast derived cell line
# Experimental: MDA-MD-231 (breast) and H460 (lung) cancer cells were cultured in RPMI1640 media supplemented with 10% FBS and 100 units/mL of Penicillin and Steptomycin.
# (§2) Survival assays were routinely done on MDA-MB-231 and H460 cells. Cells were seeded in 96 well plates at a respective density of 5000 and 2000 cells per well and incubated at 37° C. in presence of 5% CO2 for 24 hours. Selected compounds were diluted into the media at various concentration ranging from 0.01 uM up to 100 uM. Diluted compounds were added onto the MDA-MB-231 cells. For H460 cells, the compounds were added either alone or in presence of 3 ng/ml of TRAIL. After 72 hours cellular viability was evaluated by MTS based assays. A solution of [3-(4,5-dimethylthiazol-2-yl)-5-(3-carboxymethoxyphenyl)-2-(4-sulfophenyl)-2H-tetrazolium, inner salt; MTS] was added onto cells for a period of 1 to 4 hours. Upon incubation the amount of converted MTS was evaluated using a Tecan spectrophotometer set at 570 nm.
# XIAP BIR3 = test: Pull-down assay with affinity beads, western blot; type: binding; details: Method 33A
# Experimental: Prior to the pull-down assay the compound 168-affinity-agarose beads were prepared as follows:
# 300 ul of avidine-agarose beads prepared as 50% slurry in buffer A were incubated with 40 ul compound 168 (2.5 mM final) for 6 hrs at 4° C. with shaking. Upon incubation the beads were washed 3 times with buffer A.
# On the day of the pull-down assay, cells such as MDA-MB-231 or 293A were collected and lyzed with a buffer A containing 20 mM Tris HCl, 150 mM NaCl, 10% Glycerol 1% NP-40 and Protease inhibitor cocktail obtained from Sigma with a final protein concentration between 3 to 30 ug/ul.
# For the pull-down assay, 60 ul of the compound 168-beads preparation were incubated with 300 ug cells lysate and 10 ul compound 107 (0.36 mM final) or as control with 10 ul of buffer A to get a final volume of 550 ul. The mixture was then incubated at 4 C over night with shaking. The following day, the beads were washed three times with the buffer A and the final bead pellet was re-suspended in 50 ul of 2× Leamli buffer. The samples were then centrifuged and the supernatant was collected for western blot analysis directed against XIAP of the other IAP's.
# Alternatively a similar protocol was performed with AVPI-Biotin and IPVA-Biotin probes.
# SKOV-3 cell line = test: Cell survival, SKOV-3 cell line; type: cell-based; details: Homo sapiens, SK-OV-3
# Experimental: as §2
# Various compounds, including compounds 16, 42, 44, 45, 48, 52, 53, 75, 84 and 89, were tested in the MDA-MB-231 breast derived cell line and found to have EC50 of <5 μM. […] Also, various compounds 175, 176, 177 and 178 were tested against SKOV-3 cell line, and found to have EC50 of <5 μM.
# T2 sequence (Q13490 251-363): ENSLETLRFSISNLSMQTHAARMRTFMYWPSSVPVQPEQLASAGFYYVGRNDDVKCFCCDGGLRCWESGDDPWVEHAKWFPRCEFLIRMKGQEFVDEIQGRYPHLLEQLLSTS
# T3 sequence (Q13489 236-349): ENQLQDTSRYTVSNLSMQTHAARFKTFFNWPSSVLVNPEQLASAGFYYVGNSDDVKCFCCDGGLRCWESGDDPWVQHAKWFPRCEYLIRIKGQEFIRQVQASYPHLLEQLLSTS
# T1 sequence (P98170 246-497): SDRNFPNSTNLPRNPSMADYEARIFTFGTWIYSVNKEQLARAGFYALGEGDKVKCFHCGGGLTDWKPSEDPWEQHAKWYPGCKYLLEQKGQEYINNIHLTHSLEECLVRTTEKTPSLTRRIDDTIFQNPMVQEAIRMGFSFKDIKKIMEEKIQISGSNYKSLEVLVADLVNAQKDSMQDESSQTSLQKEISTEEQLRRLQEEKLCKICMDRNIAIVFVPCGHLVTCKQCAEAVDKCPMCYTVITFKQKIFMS
# T4 sequence (P98170 246-497): as above
# T5 sequence (P98170 93-497): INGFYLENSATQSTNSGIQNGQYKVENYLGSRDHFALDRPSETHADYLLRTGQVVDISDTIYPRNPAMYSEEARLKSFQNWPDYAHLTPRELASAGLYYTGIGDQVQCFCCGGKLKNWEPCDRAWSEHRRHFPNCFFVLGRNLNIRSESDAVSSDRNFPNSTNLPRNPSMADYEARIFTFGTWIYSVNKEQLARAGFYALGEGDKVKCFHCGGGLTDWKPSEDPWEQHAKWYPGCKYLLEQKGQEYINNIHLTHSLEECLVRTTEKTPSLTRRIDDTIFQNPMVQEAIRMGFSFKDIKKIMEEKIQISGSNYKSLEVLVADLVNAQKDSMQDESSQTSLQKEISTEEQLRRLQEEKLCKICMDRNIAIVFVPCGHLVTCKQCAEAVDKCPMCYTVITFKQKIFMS
# T6 sequence (P98170 93-497): as above
pIC50 (GST-XIAP BIR3RING),pIC50 (GST-HIAP2 (cIAP-1) BIR 3),pIC50 (GST-HIAP1(cIAP-2) BIR 3),Compound,pEC50 (MDA-MB-231 cells),pEC50 (SKOV-3 cell line),also measured
–,–,–,CN[C@@H](C)C(=O)N[C@H](C(=O)N1CCC[C@H]1CN(CCc1ccccc1)C(=O)[C@H](N)Cc1ccc(OC)cc1)C(C)(C)C [54 bis-HCl],–,–,MTT signal in hollow fiber model [1]: reduction in MTT signal; Anti-tumor activity in combination with Taxotere (H460 cells): anti-tumor activity
> 5.00,> 6.00,> 5.00,CN[C@@H](C)C(=O)N[C@H](C(=O)N1CCC[C@H]1CNCCc1ccccc1)C(C)(C)C [Compound 16],> 5.30,–,pIC50 [2]: > 6.00; pIC50 [3]: < 5.00; pIC50 [4]: < 5.00
> 6.00,> 6.00,> 6.00,CN[C@@H](C)C(=O)N[C@H](C(=O)N1CCC[C@H]1CN(CCc1ccccc1)C(=O)CNCc1ccccc1)C(C)(C)C [Compound 45],> 5.30,–,–
> 6.00,> 6.00,> 6.00,CN[C@@H](C)C(=O)N[C@H](C(=O)N1CCC[C@H]1CN(CCc1ccccc1)C(=O)CCCc1ccccc1)C(C)(C)C [Compound 48],> 5.30,–,–
> 6.00,> 6.00,> 6.00,CN[C@@H](C)C(=O)N[C@H](C(=O)N1CCC[C@H]1CN(CCc1ccccc1)C(=O)[C@@H](Cc1ccccc1)NC)C(C)(C)C [Compound 52],> 5.30,–,–
> 6.00,> 6.00,> 6.00,CN[C@@H](C)C(=O)N[C@H](C(=O)N1CCC[C@H]1CN(CCc1ccccc1)C(=O)[C@H](N)Cc1ccc(F)cc1)C(C)(C)C [Compound 53],> 5.30,–,–
–,–,–,CN[C@@H](C)C(=O)N[C@H](C(=O)N1CCC[C@H]1CN(CCc1ccccc1)C(=O)CCCCC1SC[C@@H]2NC(=O)N[C@H]12)C(C)(C)C (stereo partly drawn) [Compound 168],–,–,Pull-down of XIAP BIR3 (Western-blot) (XIAP BIR3): XIAP BIR3 was pulled-down
–,–,–,CN[C@@H](C)C(=O)N[C@H](C(=O)N1CCC[C@H]1CN(CCc1ccccc1)C(=O)c1ccc(C(=O)N(CCc2ccccc2)C[C@@H]2CCCN2C(=O)[C@@H](NC(=O)[C@H](C)NC)C(C)(C)C)cc1)C(C)(C)C [Compound 175],–,> 5.30,–
–,–,–,CN[C@@H](C)C(=O)N[C@H](C(=O)N1CCC[C@H]1CN(CCc1ccccc1)C(=O)CCCCCCCCC(=O)N(CCc1ccccc1)C[C@@H]1CCCN1C(=O)[C@@H](NC(=O)[C@H](C)NC)C(C)(C)C)C(C)(C)C [Compound 176],–,> 5.30,–
–,–,–,CN[C@@H](C)C(=O)N[C@H](C(=O)N1CCC[C@H]1CN(CCc1ccccc1)C(=O)CCCC(=O)N(CCc1ccccc1)C[C@@H]1CCCN1C(=O)[C@@H](NC(=O)[C@H](C)NC)C(C)(C)C)C(C)(C)C [Compound 177],–,> 5.30,–
–,–,–,CN[C@@H](C)C(=O)N[C@H](C(=O)N1CCC[C@H]1CN(CCc1ccccc1)C(=O)c1ccc(-c2ccc(C(=O)N(CCc3ccccc3)C[C@@H]3CCCN3C(=O)[C@@H](NC(=O)[C@H](C)NC)C(C)(C)C)cc2)cc1)C(C)(C)C [Compound 178],–,> 5.30,–
